Results as given in paper PMC10584170, “Machine learning-based phenotypic imaging to characterise the targetable biology of Plasmodium falciparum male gametocytes for the development of transmission-blocking antimalarials” (PLOS Pathogens, 2023).
Like-named read-outs stand apart in the source and are kept apart here.

Tests used:
[1] = test system: P. falciparum female gametocytes; test: P. falciparum Dual Gamete Formation Assay (PfDGFA), female readout (Pfs25-positive female gametes); format: cell-based, Plasmodium falciparum NF54; conditions: for Selectivity ratio F: HepG2 Tox50 versus female IC50; for IC50: PfDGFA, 24 h incubation with gametocytes before induction, female gamete readout, read-out: Female IC50; for HitlevelF: number of replicates with >50% inhibition in the female readout
Procedure, shortened: (§1)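 Read-outs are automated image counts of exflagellation centres (brightfield, 10 frames over 1 s) and Pfs25-positive female gametes (Cy3 fluorescence).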

[2] = test system: P. falciparum male gametocytes; test: P. falciparum Dual Gamete Formation Assay (PfDGFA), male readout (exflagellation); format: cell-based, Plasmodium falciparum NF54; conditions: for Selectivity Ratio M: HepG2 Tox50 versus male IC50; for IC50: PfDGFA, 24 h incubation with gametocytes before induction, exflagellation readout, read-out: Male IC50; for HitlevelM: number of replicates with >50% inhibition in the male readout
Procedure, shortened: as §1

[3] = test system: HepG2 cells; test: HepG2 cytotoxicity counter-screen; conditions: cytotoxic activity against HepG2 cells
[4] = Plasmodium falciparum, 2µM, 24h preincubation with gametocytes, average of replicates, read-out: Average inhibition female (%)
[5] = Plasmodium falciparum, 2µM, 24h preincubation with gametocytes, replicate R1, read-out: % inhibition female (individual replicates) R1
[6] = Plasmodium falciparum, 2µM, 24h preincubation with gametocytes, replicate R2, read-out: % inhibition female (individual replicates) R2
[7] = Plasmodium falciparum, 2µM, 24h preincubation with gametocytes, replicate R3, read-out: % inhibition female (individual replicates) R3
[8] = Plasmodium falciparum, 2µM, 24h preincubation with gametocytes, replicate R4, read-out: % inhibition female (individual replicates) R4
[9] = Plasmodium falciparum, 2µM, 24h preincubation with gametocytes, average of replicates, read-out: Average inhibition male (%)
[10] = Plasmodium falciparum, 2µM, 24h preincubation with gametocytes, replicate R1, read-out: % inhibition male (individual replicates) R1
[11] = Plasmodium falciparum, 2µM, 24h preincubation with gametocytes, replicate R2, read-out: % inhibition male (individual replicates) R2
[12] = Plasmodium falciparum, 2µM, 24h preincubation with gametocytes, replicate R3, read-out: % inhibition male (individual replicates) R3
[13] = Plasmodium falciparum, 2µM, 24h preincubation with gametocytes, replicate R4, read-out: % inhibition male (individual replicates) R4
[14] = PfDGFA at 2µM, 24h preincubation with gametocytes, average of replicates
[15] = PfDGFA at 2µM, 24h preincubation with gametocytes, replicate R1
[16] = PfDGFA at 2µM, 24h preincubation with gametocytes, replicate R3
[17] = PfDGFA at 2µM, 24h preincubation with gametocytes, replicate R4
[18] = 2µM, 24h preincubation with gametocytes, average of replicates
[19] = 2µM, 24h preincubation with gametocytes, replicate R1
[20] = 2µM, 24h preincubation with gametocytes, replicate R3
[21] = 2µM, 24h preincubation with gametocytes, replicate R4
[22] = 2µM, 24h preincubation with gametocytes prior to induction of gametogenesis, average of replicates
[23] = 2µM, 24h preincubation with gametocytes prior to induction of gametogenesis, replicate R1
[24] = 2µM, 24h preincubation with gametocytes prior to induction of gametogenesis, replicate R3
[25] = 2µM, 24h preincubation with gametocytes prior to induction of gametogenesis, replicate R4

Compound | IC50 [1] [µM] | IC50 [2] [µM] | Selectivity ratio F [1] | Selectivity Ratio M [2] | Tox50 [3] [µM] | Average inhibition female (%) [1, 14] [%] | % inhibition female (individual replicates) R1 [1, 15] [%] | % inhibition female (individual replicates) R3 [1, 16] [%] | % inhibition female (individual replicates) R4 [1, 17] [%] | HitlevelF ([1]; 2µM) | Average inhibition male (%) [2, 14] [%] | % inhibition male (individual replicates) R1 [2, 15] [%] | % inhibition male (individual replicates) R3 [2, 16] [%] | % inhibition male (individual replicates) R4 [2, 17] [%] | HitlevelM ([2]; 2µM) | other results
CC(C)(C)c1ccc(-c2nc3c(ccc4nc(N)nc(N)c43)[nH]2)cc1.Cl [TCMDC-137984] | – | – | 3.35 | 17.94 | 3.25 | – | – | – | – | – | – | – | – | – | – | inhibition at 2 µM [1, 4]: 42.3%; inhibition at 2 µM [1, 5]: 35.1%; inhibition at 2 µM [1, 6]: 50%; inhibition at 2 µM [1, 7]: 42.4%; inhibition at 2 µM [1, 8]: 41.7%; IC50 ([1]; Plasmodium falciparum): 0.97 µM; inhibition at 2 µM [2, 9]: 99.4%; inhibition at 2 µM [2, 10]: 99.9%; inhibition at 2 µM [2, 11]: 99.6%; inhibition at 2 µM [2, 12]: 98%; inhibition at 2 µM [2, 13]: 100%; IC50 ([2]; Plasmodium falciparum): 0.18 µM
Cn1c(-c2ccccc2)cc2c3c(N)nc(N)nc3ccc21 [TCMDC-137985] | 3.3 | 1.88 | 1.39 | 2.45 | 4.6 | 1.3 | 15.4 | -11.7 | 3.6 | 0 | 67.4 | 74.3 | 56.6 | 64.0 | 4 | –
CCCCCCCCN1CCN(CCCCCCNc2c3ccccc3nc3ccccc23)CC1.Cl [TCMDC-138015] | 1.91 | 1.76 | 2.15 | 2.34 | 4.12 | 83.0 | 79.8 | 90.0 | 82.3 | 4 | 63.5 | 58.8 | 66.4 | 81.8 | 3 | –
Cc1ccc(S(=O)(=O)N(CCCNCc2cccc(O)c2)c2ccccc2)cc1 [TCMDC-138022] | – | – | 4.12 | 100.82 | 31.57 | – | – | – | – | – | – | – | – | – | – | inhibition at 2 µM [1, 4]: 63.8%; inhibition at 2 µM [1, 5]: 52.6%; inhibition at 2 µM [1, 6]: 60%; inhibition at 2 µM [1, 7]: 91.9%; inhibition at 2 µM [1, 8]: 50.6%; IC50 ([1]; Plasmodium falciparum): 7.66 µM; inhibition at 2 µM [2, 9]: 98.1%; inhibition at 2 µM [2, 10]: 102%; inhibition at 2 µM [2, 11]: 101%; inhibition at 2 µM [2, 12]: 97.3%; inhibition at 2 µM [2, 13]: 91.8%; IC50 ([2]; Plasmodium falciparum): 0.31 µM
CCN(CC)CC(O)CNc1c2ccc([N+](=O)[O-])cc2nc2cc(OC)c(OC)cc12.Cl (stereo not shown) [TCMDC-138079] | 3.07 | 0.42 | 0.86 | 6.3 | 2.63 | – | – | – | – | – | – | – | – | – | – | Average inhibition female (%) [1, 18]: 25.5%; % inhibition female (individual replicates) R1 [1, 19]: 28.2%; % inhibition female (individual replicates) R3 [1, 20]: 21.9%; % inhibition female (individual replicates) R4 [1, 21]: 25.2%; Average inhibition male (%) [2, 18]: 95.0%; % inhibition male (individual replicates) R1 [2, 19]: 93.0%; % inhibition male (individual replicates) R4 [2, 21]: 92.3%
COc1cc2nc(NCc3cccc(CNC(=O)c4ccc(-c5ccc(C(C)=O)cc5)cc4)c3)nc(N)c2cc1OC.O=C(O)C(F)(F)F [TCMDC-138177] | 2.02 | 1.63 | 3.13 | 3.88 | 6.34 | 43.1 | 31.2 | 17.8 | 57.2 | 2 | 65.2 | 54.7 | 22.4 | 95.6 | 3 | –
COc1ccc2nc3cc(Cl)ccc3c(NCCCCNc3c4ccc(Cl)cc4nc4ccc(OC)cc34)c2c1 [TCMDC-138218] | – | – | 6.16 | 6.15 | 2.31 | – | – | – | – | 4 | – | – | – | – | 4 | inhibition at 2 µM ([1]; Plasmodium falciparum, PfDGFA at 2µM, 24h preincubation with gametocytes, average of replicates, read-out: Average inhibition female (%)): 88.1%; inhibition at 2 µM ([1]; Plasmodium falciparum, PfDGFA at 2µM, 24h preincubation with gametocytes, replicate R1, read-out: % inhibition female (individual replicates) R1): 84.2%; inhibition at 2 µM ([1]; Plasmodium falciparum, PfDGFA at 2µM, 24h preincubation with gametocytes, replicate R2, read-out: % inhibition female (individual replicates) R2): 86.6%; inhibition at 2 µM ([1]; Plasmodium falciparum, PfDGFA at 2µM, 24h preincubation with gametocytes, replicate R3, read-out: % inhibition female (individual replicates) R3): 91.5%; inhibition at 2 µM ([1]; Plasmodium falciparum, PfDGFA at 2µM, 24h preincubation with gametocytes, replicate R4, read-out: % inhibition female (individual replicates) R4): 89.9%; IC50 ([1]; Plasmodium falciparum): 0.38 µM; inhibition at 2 µM ([2]; Plasmodium falciparum, PfDGFA at 2µM, 24h preincubation with gametocytes, average of replicates, read-out: Average inhibition male (%)): 73.2%; inhibition at 2 µM ([2]; Plasmodium falciparum, PfDGFA at 2µM, 24h preincubation with gametocytes, replicate R1, read-out: % inhibition male (individual replicates) R1): 64.4%; inhibition at 2 µM ([2]; Plasmodium falciparum, PfDGFA at 2µM, 24h preincubation with gametocytes, replicate R2, read-out: % inhibition male (individual replicates) R2): 64.9%; inhibition at 2 µM ([2]; Plasmodium falciparum, PfDGFA at 2µM, 24h preincubation with gametocytes, replicate R3, read-out: % inhibition male (individual replicates) R3): 77.2%; inhibition at 2 µM ([2]; Plasmodium falciparum, PfDGFA at 2µM, 24h preincubation with gametocytes, replicate R4, read-out: % inhibition male (individual replicates) R4): 86.3%; IC50 ([2]; Plasmodium falciparum): 0.38 µM

Further lines, with some results ahead:

IC50 [1] [µM] | IC50 [2] [µM] | Compound | Selectivity ratio F [1] | Selectivity Ratio M [2] | Tox50 [3] [µM] | Average inhibition female (%) [1, 14] [%] | % inhibition female (individual replicates) R1 [1, 15] [%] | % inhibition female (individual replicates) R3 [1, 16] [%] | % inhibition female (individual replicates) R4 [1, 17] [%] | HitlevelF ([1]; 2µM) | Average inhibition male (%) [2, 14] [%] | % inhibition male (individual replicates) R1 [2, 15] [%] | % inhibition male (individual replicates) R3 [2, 16] [%] | % inhibition male (individual replicates) R4 [2, 17] [%] | HitlevelM ([2]; 2µM) | other results
1.56 | 0.68 | CCOC(=O)c1cc2c(CCN3C(=O)c4ccccc4C3=O)cn(C)c2cc1-c1ccncc1 [TCMDC-138099] | 1 | 2.3 | 1.57 | – | – | – | – | – | – | – | – | – | – | Average inhibition female (%) [1, 18]: 93.8%; % inhibition female (individual replicates) R1 [1, 19]: 94.3%; % inhibition female (individual replicates) R3 [1, 20]: 100.9%; % inhibition female (individual replicates) R4 [1, 21]: 92.0%; Average inhibition male (%) [2, 18]: 101.6%; % inhibition male (individual replicates) R1 [2, 19]: 102.0%; % inhibition male (individual replicates) R3 [2, 20]: 99.5%; % inhibition male (individual replicates) R4 [2, 21]: 102.4%
5.22 | 1.64 | COc1ccc(N2CCN(CCCCNCc3ccc(NC(=O)c4cc(Cl)cc(Cl)c4)cc3)CC2)c(OC)c1 [TCMDC-138226] | 1.04 | 3.29 | 5.4 | 28.5 | 20.8 | 39.5 | 12.9 | 0 | 83.1 | 85.0 | 71.2 | 96.9 | 4 | –
5.59 | 1.75 | CN(C)CCNCc1ccc(-c2ccc3c(Nc4ccc(Cl)cc4F)ccnc3c2)o1 [TCMDC-138391] | 2.31 | 7.38 | 12.91 | – | – | – | – | – | – | – | – | – | – | Average inhibition female (%) [1, 22]: 37.2%; % inhibition female (individual replicates) R1 [1, 23]: 39.6%; % inhibition female (individual replicates) R3 [1, 24]: 32.6%; % inhibition female (individual replicates) R4 [1, 25]: 31.7%; HitlevelF ([1]; 2µM, 24h preincubation): 0; Average inhibition male (%) [2, 22]: 55.2%; % inhibition male (individual replicates) R1 [2, 23]: 62.6%; % inhibition male (individual replicates) R3 [2, 24]: 53.9%; % inhibition male (individual replicates) R4 [2, 25]: 79.6%; HitlevelM ([2]; 2µM, 24h preincubation): 3
4.78 | 0.94 | CN(C)CCN(C)Cc1ccc(-c2ccc3c(Nc4ccc(Oc5ccccc5)cc4)ccnc3c2)o1 [TCMDC-138400] | 0.72 | 3.65 | 3.45 | – | – | – | – | – | – | – | – | – | – | Average inhibition female (%) [1, 18]: 65.3%; % inhibition female (individual replicates) R1 [1, 19]: 57.3%; % inhibition female (individual replicates) R3 [1, 20]: 63.8%; % inhibition female (individual replicates) R4 [1, 21]: 69.5%; Average inhibition male (%) [2, 18]: 97.6%; % inhibition male (individual replicates) R1 [2, 19]: 97.3%; % inhibition male (individual replicates) R3 [2, 20]: 97.8%; % inhibition male (individual replicates) R4 [2, 21]: 99.6%
